The values that follow come from US7217730B2, “Method for the use of pyranoindole derivatives to treat infection with Hepatitis C virus” (Wyeth, priority 2002, dated 2007).

In the assay the target is T1, NS5B from the BK strain (genotype 1b) (Hepatitis C virus genotype 1b, UniProt P26663).
T1 construct: NS5B from the BK strain (genotype 1b) is expressed in E. coli as a protein in which the 21 C-terminal amino acids are replaced; made in house; host or cells: E. coli
Description: Hepatitis C polymerase inhibition, NS5B BK strain, 33P-GTP filter assay. The assay is classed as biochemical. The conditions noted are these: Table 1A; for inhibition at 20 µM: 20 μM compound, read-out: HCV pol % inh at 20 μM; for IC50: NS5B BK strain, read-out: HCV pol BK IC50. In short, it runs like this: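 Radiolabelled RNA synthesis was measured by filter capture and scintillation counting after EDTA stop. His-tagged, C-terminally truncated (Δ21) genotype 1b BK NS5B from E. coli, pre-exposed to compound for 15 min, copied a self-primed RNA template (~3 nM) with α-[33P]-GTP for 2 h at room temperature.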

The structures appear in SMILES notation.

T1 sequence (P26663 2420-2989): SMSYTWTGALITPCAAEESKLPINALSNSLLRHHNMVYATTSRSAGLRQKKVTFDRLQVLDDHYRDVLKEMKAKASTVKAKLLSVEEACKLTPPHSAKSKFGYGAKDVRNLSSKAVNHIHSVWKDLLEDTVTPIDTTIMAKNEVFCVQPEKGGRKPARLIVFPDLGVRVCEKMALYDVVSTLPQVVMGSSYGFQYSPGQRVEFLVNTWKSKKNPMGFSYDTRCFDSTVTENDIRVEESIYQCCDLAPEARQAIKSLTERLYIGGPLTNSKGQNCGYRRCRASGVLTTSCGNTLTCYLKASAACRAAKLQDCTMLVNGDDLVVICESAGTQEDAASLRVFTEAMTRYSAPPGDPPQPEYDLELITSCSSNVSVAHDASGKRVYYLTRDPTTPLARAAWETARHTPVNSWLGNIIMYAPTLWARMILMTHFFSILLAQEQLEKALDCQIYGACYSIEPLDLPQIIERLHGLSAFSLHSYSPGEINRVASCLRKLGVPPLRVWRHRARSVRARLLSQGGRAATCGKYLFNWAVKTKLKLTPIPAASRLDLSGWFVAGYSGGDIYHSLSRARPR

For `CCCC1(CC(=O)O)OCCc2c1[nH]c1cccc(-c3ccc(F)cc3)c21` (stereo not shown) [Example 48, [5-(4-fluorophenyl)-1-propyl-1,3,4,9-tetrahydropyrano[3,4-b]indol-1-yl]acetic acid], the inhibition at 20 µM came to 18% and the 50% inhibitory concentration (IC50) (as a rule, the midpoint of a concentration-inhibition curve) was over 20 µM. As for `O=C(O)CC1(c2cccc([N+](=O)[O-])c2)OCCc2c1[nH]c1cccc(Cl)c21` (stereo not shown) [Example 19, [5-chloro-1-(3-nitrophenyl)-1,3,4,9-tetrahydropyrano[3,4-b]indol-1-yl]acetic acid], the inhibition at 20 µM was determined as 6% and the IC50 is over 20 µM. On to `CCCC1(CC(=O)O)OCCc2c1[nH]c1c(F)ccc(-c3cccc(N)c3)c21` (stereo not shown) [Example 151, [5-(3-aminophenyl)-8-fluoro-1-propyl-1,3,4,9-tetrahydropyrano[3,4-b]indol-1-yl]acetic acid], for which the inhibition at 20 µM stood at 34% and the half-inhibitory concentration (IC50) is over 20 µM.

With `CCCC1(CC(=O)O)OCCc2c1[nH]c1cccc(C#N)c21` (stereo not shown) [Example 58, (5-cyano-1-propyl-1,3,4,9-tetrahydro-pyrano[3,4-b]indol-1-yl)acetic acid], the inhibition at 20 µM came to 78% and the half-inhibitory concentration (IC50) worked out at 6.9 µM. In the case of `C/C=C/CCC1(CC(=O)O)OCCc2c1[nH]c1c(Cl)ccc(Cl)c21` (stereo not shown) [Example 50, (5,8-dichloro-1-[(3E)-pent-3-enyl]-1,3,4,9-tetrahydropyrano[3,4-b]indol-1-yl)acetic acid], the inhibition at 20 µM turned out to be 34% and the IC50 was over 20 µM.

Regarding `CCCC1(CC(=O)O)OCC(C)c2c1[nH]c1c(Cl)ccc(Cl)c21` (stereo not shown) [Example 229, (5,8-dichloro-4-methyl-1-propyl-1,3,4,9-tetrahydropyrano[3,4-b]indol-1-yl)acetic acid], the concentration for half-maximal inhibition (IC50) was 7 µM. `COc1cc(C2(CC(=O)O)OCCc3c2[nH]c2cccc(C#N)c32)cc(OC)c1OC` (stereo not shown) [Example 63, [5-cyano-1-(3,4,5-trimethoxyphenyl)-1,3,4,9-tetrahydropyrano[3,4-b]indol-1-yl]acetic acid]: the inhibition at 20 µM turned out to be 30% and the concentration for half-maximal inhibition (IC50) is over 20 µM. In the case of `Cc1cc(F)c(Br)c2c3c([nH]c12)C(C)(CC(=O)O)OCC3` (stereo not shown) [Example 199, (5-bromo-6-fluoro-1,8-dimethyl-1,3,4,9-tetrahydropyrano[3,4-b]indol-1-yl)acetic acid], the inhibition at 20 µM turned out to be 52% and the IC50 was over 5 µM. Turning to `Cc1cc(F)c2[nH]c3c(c2c1C#N)CCOC3(CC(=O)O)C(C)C` (stereo not shown) [Example 222, (5-cyano-8-fluoro-1-isopropyl-6-methyl-1,3,4,9-tetrahydropyrano[3,4-b]indol-1-yl)aceti acid], the inhibition at 20 µM stood at 45% and the IC50 is over 5 µM. Consider `CC(C)C1(CC(=O)O)OCCc2c1[nH]c1c(Cl)ccc(Cl)c21` (stereo not shown) [Example 51, (5,8-dichloro-1-isopropyl-1,3,4,9-tetrahydropyrano[3,4-b]indol-1-yl)acetic acid], for which the inhibition at 20 µM came out at 84% and the IC50 came out at 7 µM. On to `CCCC1(CC(=O)O)OCCc2c1[nH]c1c(-c3ccc(Cl)cc3Cl)cccc21` (stereo not shown) [Example 93, [8-(2,4-dichlorophenyl)-1-propyl-1,3,4,9-tetrahydropyrano[3,4-b]indol-1-yl]acetic acid], for which the inhibition at 20 µM came to 64% and the IC50 is over 20 µM. With `CCCCC1(CC(=O)O)OCCc2c1[nH]c1c(Cl)cc(Cl)cc21` (stereo not shown) [Example 103, (1-butyl-6,8-dichloro-1,3,4,9-tetrahydropyrano[3,4-b]indol-1-yl)acetic acid], the inhibition at 20 µM came out at 60% and the IC50 is 14.4 µM.

For the compound `Cc1cc(F)c(Br)c2c3c([nH]c12)C(CC(=O)O)(c1ccc(C(=O)O)cc1)OCC3` (stereo not shown) [Example 204, 4-[5-bromo-1-(carboxymethyl)-6-fluoro-8-methyl-1,3,4,9-tetrahydropyrano[3,4-b]indol-1-yl]benzoic acid], the inhibition at 20 µM is 87% and the concentration for half-maximal inhibition (IC50) turned out to be 1.2 µM.
